Measurements from the supplement of paper PMC8920030.

What was measured:
Conditions in all cases: growth mode: biofilm, 24 h; exposure time: 24 h
tobramycin [1] = compound: T1, NC[C@H]1O[C@H](O[C@H]2[C@H](O)[C@@H](O[C@H]3O[C@H](CO)[C@@H](O)[C@H](N)[C@H]3O)[C@H](N)C[C@@H]2N)[C@H](N)C[C@@H]1O [tobramycin]; test: minimum concentration of killing, 1-log CFU reduction of biofilm (MCK90); higher = more biofilm tolerance
Method: (§1)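 Clinical P. aeruginosa isolates were grown as static biofilms for 24 h at 37 °C in LB in half-area 96-well plates, then exposed for 24 h to tobramycin at 1, 4, 16, 64, 256 or […]. Surviving CFU were counted by spotting serial dilutions. MCK is the lowest tested concentration giving the stated log reduction in CFU versus an untreated control; '>1024' means the reduction was not reached at the top dose, and 1 is the lowest dose tested (≤1).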

tobramycin [2] = compound: T1, tobramycin; test: minimum concentration eradicating biofilm below detection limit (MCK-E); higher = more biofilm tolerance
Method: as §1

tobramycin [3] = compound: T1, tobramycin; test: minimum concentration of killing, 4-log CFU reduction of biofilm (MCK99.99); higher = more biofilm tolerance
Method: as §1

colistin [4] = compound: T2, CCC(C)CCCC(=O)N[C@@H](CCN)C(=O)N[C@H](C(=O)N[C@@H](CCN)C(=O)N[C@H]1CCNC(=O)[C@H]([C@@H](C)O)NC(=O)[C@H](CCN)NC(=O)[C@H](CCN)NC(=O)[C@H](CC(C)C)NC(=O)[C@@H](CC(C)C)NC(=O)[C@H](CCN)NC1=O)[C@@H](C)O [colistin]; test: minimum concentration of killing, 1-log CFU reduction of biofilm (MCK90); higher = more biofilm tolerance
Method: as §1, with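 “colistin” for “tobramycin”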

colistin [5] = compound: T2, colistin; test: minimum concentration of killing, 4-log CFU reduction of biofilm (MCK99.99); higher = more biofilm tolerance
Method: as §1, with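 “colistin” for “tobramycin”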

tobramycin [6] = compound: T1, tobramycin; test: minimum concentration of killing, 2-log CFU reduction of biofilm (MCK99); higher = more biofilm tolerance
Method: as §1

colistin [7] = compound: T2, colistin; test: minimum concentration eradicating biofilm below detection limit (MCK-E); higher = more biofilm tolerance
Method: as §1, with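 “colistin” for “tobramycin”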

colistin [8] = compound: T2, colistin; test: minimum concentration of killing, 2-log CFU reduction of biofilm (MCK99); higher = more biofilm tolerance
Method: as §1, with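 “colistin” for “tobramycin”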

Test System	minimum concentration of killing (tobramycin [1]) [µg/mL]	minimum concentration eradicating biofilm below detection limit (tobramycin [2]) [µg/mL]	minimum concentration of killing (tobramycin [3]) [µg/mL]	minimum concentration of killing (colistin [4]) [µg/mL]	minimum concentration of killing (colistin [5]) [µg/mL]	minimum concentration of killing (tobramycin [6]) [µg/mL]	minimum concentration eradicating biofilm below detection limit (colistin [7]) [µg/mL]	minimum concentration of killing (colistin [8]) [µg/mL]
Pseudomonas aeruginosa clinical isolate ESP003	16	1020	1020	256	256	256	256	256
Pseudomonas aeruginosa clinical isolate ESP004	256	> 1020	1020	64	256	1020	256	256
Pseudomonas aeruginosa clinical isolate ESP006	16	1020	256	64	64	64	256	64
Pseudomonas aeruginosa clinical isolate ESP009	16	1020	256	64	64	16	64	64
Pseudomonas aeruginosa clinical isolate ESP011	16	1020	1020	16	64	256	64	16
Pseudomonas aeruginosa clinical isolate ESP012	256	> 1020	> 1020	64	64	> 1020	64	64
Pseudomonas aeruginosa clinical isolate ESP013	> 1020	> 1020	> 1020	64	256	> 1020	1020	64
Pseudomonas aeruginosa clinical isolate ESP015	4	256	256	64	256	64	256	256
Pseudomonas aeruginosa clinical isolate ESP020	4	256	256	64	256	256	256	256
Pseudomonas aeruginosa clinical isolate ESP021	4	64	64	16	256	4	256	64
Pseudomonas aeruginosa clinical isolate ESP022	16	256	16	256	256	16	256	256
Pseudomonas aeruginosa clinical isolate ESP023	≤ 1	16	16	64	64	16	64	64
Pseudomonas aeruginosa clinical isolate ESP024	≤ 1	64	16	4	256	4	256	4
Pseudomonas aeruginosa clinical isolate ESP025	1020	> 1020	> 1020	16	16	> 1020	64	16
Pseudomonas aeruginosa clinical isolate ESP027	≤ 1	1020	1020	16	64	4	64	64
Pseudomonas aeruginosa clinical isolate ESP028	16	1020	1020	256	256	256	256	256
Pseudomonas aeruginosa clinical isolate ESP029	4	256	256	256	256	4	256	256
Pseudomonas aeruginosa clinical isolate ESP031	1020	1020	1020	256	256	1020	256	256
